Measured values reported in the supplement of paper PMC13380429.

How the values were obtained:
Conditions in all cases: 72 h
Calu-3 [1] = test: cell viability relative to DMSO; higher = less toxic
HepG2 [2] = test: as above
U2OS [3] = test: as above
Vero E6 [4] = test: as above
Calu-3 [5] = test: relative viability EC50 (midpoint between 100% and the lowest measured viability); higher = less toxic
HepG2 [6] = test: as above
U2OS [7] = test: as above
Vero E6 [8] = test: as above
Calu-3 [9] = test: drug sensitivity score (DSS) for viability; higher = more toxic; extreme values may be limits of the assay
HepG2 [10] = test: as above
U2OS [11] = test: as above
Vero E6 [12] = test: as above
Caco-2 [13] = test: cell viability relative to DMSO; higher = less toxic
Caco-2 [14] = test: relative viability EC50 (midpoint between 100% and the lowest measured viability); higher = less toxic
Caco-2 [15] = test: drug sensitivity score (DSS) for viability; higher = more toxic; extreme values may be limits of the assay

Row | SMILES | cell viability (Calu-3 [1]; 1 nM) [%] | cell viability (Calu-3 [1]; 10 nM) [%] | cell viability (Calu-3 [1]; 100 nM) [%] | cell viability (Calu-3 [1]; 1000 nM) [%] | cell viability (Calu-3 [1]; 10000 nM) [%] | cell viability (HepG2 [2]; 1 nM) [%] | cell viability (HepG2 [2]; 10 nM) [%] | cell viability (HepG2 [2]; 100 nM) [%] | cell viability (HepG2 [2]; 1000 nM) [%] | cell viability (HepG2 [2]; 10000 nM) [%] | cell viability (U2OS [3]; 1 nM) [%] | cell viability (U2OS [3]; 10 nM) [%] | cell viability (U2OS [3]; 100 nM) [%] | cell viability (U2OS [3]; 1000 nM) [%] | cell viability (U2OS [3]; 10000 nM) [%] | cell viability (Vero E6 [4]; 1 nM) [%] | cell viability (Vero E6 [4]; 10 nM) [%] | cell viability (Vero E6 [4]; 100 nM) [%] | cell viability (Vero E6 [4]; 1000 nM) [%] | cell viability (Vero E6 [4]; 10000 nM) [%] | relative viability EC50 (Calu-3 [5]) [µM] | relative viability EC50 (HepG2 [6]) [µM] | relative viability EC50 (U2OS [7]) [µM] | relative viability EC50 (Vero E6 [8]) [µM] | drug sensitivity score (Calu-3 [9]) | drug sensitivity score (HepG2 [10]) | drug sensitivity score (U2OS [11]) | drug sensitivity score (Vero E6 [12]) | cell viability (Caco-2 [13]; 1 nM) [%] | cell viability (Caco-2 [13]; 10 nM) [%] | cell viability (Caco-2 [13]; 100 nM) [%] | cell viability (Caco-2 [13]; 1000 nM) [%] | cell viability (Caco-2 [13]; 10000 nM) [%] | relative viability EC50 (Caco-2 [14]) [µM] | drug sensitivity score (Caco-2 [15])
1 | Cc1cc(C)cc(NC(=O)Cc2ccc(OC(C)(C)C(=O)O)cc2)c1 [efaproxiral] | 98.6 | 103 | 104 | 101 | 105 | 107 | 107 | 104 | 101 | 96.4 | 97.7 | 95.7 | 98.9 | 93.5 | 94.3 | 98.5 | 97.5 | 101 | 101 | 98.2 | > 10 | > 10 | > 10 | > 10 | 0 | 0 | 0 | 0 | – | – | – | – | – | – | –
2 | COc1ccc(-c2cc(=O)c3c(OC)c(OC)c(OC)c(OC)c3o2)cc1OC [nobiletin] | 99.5 | 111 | 106 | 104 | 83.8 | 96.9 | 108 | 102 | 83.2 | 68.6 | 94.4 | 103 | 94 | 99.7 | 92.3 | 102 | 104 | 94.5 | 93.5 | 91.6 | > 10 | – | > 10 | > 10 | 0.2 | 3.4 | 0 | 0 | 86.4 | 99.4 | 100 | 95.3 | 80.9 | > 10 | 1.1
3 | C[C@]12CC[C@H]3[C@@H](CC[C@@]45O[C@@H]4C(O)=C(C#N)C[C@]35C)[C@@H]1CC[C@@H]2O [trilostane] | – | – | – | – | – | – | – | – | – | – | 98.8 | 103 | 105 | 105 | 97.9 | 91.3 | 98.5 | 92.8 | 92.4 | 102 | – | – | > 10 | > 10 | – | – | 0 | 0 | 105 | 92.9 | 99.9 | 97.6 | 99.3 | > 10 | 0
4 | CO[C@@H](C(=O)N1Cc2[nH]nc(NC(=O)c3ccc(N4CCN(C)CC4)cc3)c2C1)c1ccccc1 [danusertib] | 89 | 93.8 | 77.1 | 76.9 | 52.9 | 93.4 | 95.9 | 78.3 | 55.8 | 42.6 | 99.6 | 103 | 93.9 | 74.8 | 31 | 104 | 101 | 104 | 98.6 | 84.2 | – | 0.192 | 1.35 | > 10 | 7.5 | 10.7 | 6.8 | 0.4 | 94.7 | 95.4 | 94.9 | 82.9 | 71.7 | – | 2.9
5 | Cc1cc(Nc2ncnc3ccc(NC4=NC(C)(C)CO4)cc23)ccc1Oc1ccn2ncnc2c1 [tucatinib] | 105 | 93.3 | 70.7 | 47.3 | 28.4 | 101 | 96 | 103 | 98.4 | 87.1 | 100 | 104 | 95.3 | 98.2 | 87.9 | 99.4 | 95.8 | 95.1 | 86.9 | 75.6 | 0.191 | > 10 | > 10 | > 10 | 13.7 | 0.2 | 0.1 | 2 | 98.9 | 103 | 99.8 | 92.5 | 52 | – | 3.8
6 | C[C@H]1[C@@H](O)O[C@@H]2O[C@@]3(C)CC[C@H]4[C@H](C)CC[C@@H]1[C@@]24OO3 [ARTENIMOL] | 93.8 | 94.8 | 97.5 | 101 | 98.6 | 106 | 100 | 96.4 | 97.2 | 71.8 | 96.5 | 104 | 92.4 | 82.4 | 31.8 | 115 | 99.1 | 101 | 103 | 95.9 | > 10 | – | 1.57 | > 10 | 0 | 1.6 | 6.3 | 0 | 100 | 102 | 100 | 88.9 | 79.8 | > 10 | 1.7
7 | CC(C)Oc1ccc(Cc2ccc(NC3=NCCN3)cc2)cc1 | 104 | 99.8 | 95.7 | 96.6 | 88.2 | 102 | 94.6 | 104 | 97.4 | 71.6 | 95.3 | 102 | 95.3 | 98.4 | 90.7 | 96.9 | 97.6 | 101 | 99.5 | 96.7 | > 10 | – | > 10 | > 10 | 0 | 1.6 | 0 | 0 | 102 | 96.1 | 99.3 | 99.4 | 82.3 | > 10 | 0.5
8 | NCCCCN=C(N)N [agmatine] | 94.8 | 95.7 | 93.2 | 89.4 | 99.9 | 95.5 | 96.6 | 99.4 | 110 | 94.7 | 103 | 96.3 | 100 | 100 | 99.2 | 103 | 97.6 | 97.4 | 104 | 88.6 | > 10 | > 10 | > 10 | > 10 | 0 | 0 | 0 | 0 | 114 | 82.8 | 92.5 | 82.5 | 72.2 | – | 3.4
